Results published in paper PMC9747717, “A novel small molecule inhibitor of human Drp1” (Scientific Reports, 2022).
“And” between values parts separate entries of the source, which are not always exact repeats. Identical values can stand only once.

How the values were obtained:
human Drp1 isoform 3 [1] = target: T1, human Drp1 isoform 3 (Homo sapiens, UniProt O00429); test: Microscale thermophoresis (MST) binding; conditions: human Drp1 isoform 3, 5% DMSO
T1 construct: His tag; made in house; host or cells: E. coli Rosetta (DE3), pET21b vector
Experimental: The recombinant human Drp1 protein (His-tagged human Drp1 isoform 3, kindly provided by Professor Michael Ryan, Monash University, Australia) was generated as described previously. Briefly, cDNA for human Drp1 (isoform 3) was cloned into pET21b vector and transformed in Rosetta (DE3) competent cells (Novagen, MA, Merck Millipore). Transformed cells were propagated in Luria–Bertani broth and protein expression was initiated by the addition of 0.5 mM isopropyl β-D-1-thiogalactopyranoside. Cells were harvested by centrifugation at 3,500 g for 20 min at 4 °C, and the pellet was re-suspended in lysis buffer containing 50 mM Tris HCl (pH 7.3), 500 mM NaCl, 50 mM imidazole, 2.5 mM β-mercaptoethanol, 0.01 mM LEUPEP, 0.1 mM AEBSF and 1 mM benzaminidium chloride. The cells were lysed using a pre-cooled EmulsiFlex-C5 homogenizer (Avestin, Ontario, Canada) on ice and clarified by centrifugation at 17,000 g for 30 min. The clarified cell lysate was loaded onto a 5 mL Nickel Chelating Sepharose Fast Flow column (GE Healthcare, Buckinghamshire, UK) and Drp1 protein was eluted with wash buffer containing 50 mM Tris–HCl (pH 7.6), 150 mM NaCl, 2.5 mM β-mercaptoethanol and 400 mM imidazole. […]
Compound binding was assessed in against the human Drp1 isoform-3 protein using MST Monolith NT.115 instrument (NanoTemper Technologies, Mȕnchen, Germany). […]

[2] = tested on: Human foreskin fibroblasts (HFF-1); test: Hydrogen peroxide-induced oxidative stress, cell death; assay type: cell-based; conditions: 50 µM compound, 3 mM hydrogen peroxide, compared to DMSO control
Experimental: Human foreskin fibroblasts (HFF-1, ATCC, VA, USA) were treated with 3 mM hydrogen peroxide plus vehicle control (0.1% DMSO), Mdivi-1 (50 µM) or individual compound at 50 µM. After 2.5–3 h of incubation at 37 °C in a humidified 5% CO2 incubator, cells were stained with 1 μg/mL propidium iodide and 3 μg/mL Hoechst 33258 to determine the percentage of dead cells. Images were captured at 20 × objective with an inverted microscope (Olympus IX71). The number of dead cells (propodium iodide positive) was counted and expressed as a percentage over total number of cells (Hoechst 33258 positive). At least 100 cells were counted per group for each independent experiment.

Drp1 wild type MEFs = test: Mitochondrial morphology analysis in Drp1 wild type MEF; assay type: cell-based, mouse; conditions: statistical significance at 10 and 50 µM
Experimental: (§1) Human foreskin fibroblasts and Drp1 wildtype and KO MEF (kindly provided by Professor Hiromi Sesaki, Johns Hopkins University, USA)[28],[29] were transduced with pAS2.EYFP.puro lentiviruses (RNAiCore, Academia Sinica, Taiwan) carrying the mitochondrial-targeted EGFP sequence as described in Kalkhoran et al.[30]. Cells were then treated with DRP1i27 (5, 10 or 50 µM) or 0.1% DMSO vehicle control for 24 h.
(§2) Mitochondrial morphology in HL-1 cells were visualised by immunostaining of mitochondrial Hsp60 antibody (Abcam, MA, USA). Images were acquired using Olympus BX60 fluorescence microscope at 600 × magnification and analysed using Fiji imaging software (ImageJ v1.53c). Cells were categorised into predominantly (> 50%) having fused or fragmented mitochondria. At least 100 cells were analysed for each treatment group.

[3] = tested on: Human foreskin fibroblasts; test: Mitochondrial morphology analysis in human fibroblasts; assay type: cell-based
Experimental: as §1, §2

human Drp1 isoform 3 [4] = target: T1, human Drp1 isoform 3; test: Surface plasmon resonance (SPR) binding; conditions: human Drp1 isoform 3, 25 °C, 2% DMSO
Experimental: The recombinant human Drp1 protein (His-tagged human Drp1 isoform 3, kindly provided by Professor Michael Ryan, Monash University, Australia) was generated as described previously. Briefly, cDNA for human Drp1 (isoform 3) was cloned into pET21b vector and transformed in Rosetta (DE3) competent cells (Novagen, MA, Merck Millipore). Transformed cells were propagated in Luria–Bertani broth and protein expression was initiated by the addition of 0.5 mM isopropyl β-D-1-thiogalactopyranoside. […]
All SPR experiments were performed on a Biacore T200 instrument (GE Healthcare Life Sciences, Uppsala, Sweden) at 25 °C in the presence of HEPES buffered saline containing 20 mM phosphate (pH 7.5), 137 mM NaCl, 2.7 mM KCl and 0.05% Tween-20 (HBS + P). […] Sensor surface was activated with 1:1 mixture of 0.4 M EDC and 0.1 M NHS for 7 min, followed by incremental injections of the protein to reach ~ 8000 RU (flow rate 10 μL/minute) for a calculated maximum analyte binding capacity (Rmax) of 30–50 RU. […]
Compounds were dissolved in 100% dimethyl sulfoxide (DMSO) and then added to HBS + P at a final DMSO concentration of 2%. […] SPR results were analysed using the Biacore T200 Evaluation Software v.1.

T1 sequence (O00429 1-699 isoform O00429-4): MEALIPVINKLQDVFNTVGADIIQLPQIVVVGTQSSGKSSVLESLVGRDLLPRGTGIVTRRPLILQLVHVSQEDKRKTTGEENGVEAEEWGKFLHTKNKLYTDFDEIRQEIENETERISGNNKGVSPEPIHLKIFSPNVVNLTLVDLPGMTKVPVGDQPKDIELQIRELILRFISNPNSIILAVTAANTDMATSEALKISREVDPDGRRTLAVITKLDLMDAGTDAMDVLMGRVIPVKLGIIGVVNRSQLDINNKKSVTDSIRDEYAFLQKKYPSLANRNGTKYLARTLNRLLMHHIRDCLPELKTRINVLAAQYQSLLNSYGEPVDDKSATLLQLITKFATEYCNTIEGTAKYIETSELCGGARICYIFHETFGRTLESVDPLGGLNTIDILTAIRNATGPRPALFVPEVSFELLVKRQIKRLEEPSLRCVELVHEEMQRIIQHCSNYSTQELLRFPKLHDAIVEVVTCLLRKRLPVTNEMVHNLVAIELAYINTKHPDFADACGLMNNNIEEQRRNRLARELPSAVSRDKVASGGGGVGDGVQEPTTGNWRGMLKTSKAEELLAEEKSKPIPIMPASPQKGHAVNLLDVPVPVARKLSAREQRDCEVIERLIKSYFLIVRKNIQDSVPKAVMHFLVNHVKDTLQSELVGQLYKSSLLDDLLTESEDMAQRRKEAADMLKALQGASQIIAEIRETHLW

Cc1nc[nH]c1CN1C[C@@H]2CC[C@H](C1)N(Cc1ccc(-c3cc[nH]n3)o1)C2 [DRP1i27]
Kd (human Drp1 isoform 3 [1]): 191 µM and 190 µM
cell death induced by hydrogen peroxide [2]: significant reduction
cellular networks of mitochondria (Drp1 wild type MEFs): dose-dependent response
percentage of cells with elongated mitochondria ([3]; basal condition, compared to DMSO control): significant increase
cellular networks of mitochondria ([3]; human fibroblasts, 5, 10 or 50 µM, 24 h): increase cellular networks of mitochondria
Kd (human Drp1 isoform 3 [4]): 286 µM and 287 µM
